Experimental data: the supplement of paper PMC7341893
± gives the standard deviation of the averaged measurements.

Experiments:
Test in all cases: growth (OD600) normalised to reference wells; higher = more growth / less inhibition
GPI15_HIP = system: GPI15_HIP
Procedure: (§1)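 S. cerevisiae strains (wild type, SPT14 point-mutant knock-ins, HIP heterozygous and HOP homozygous deletion strains) were grown in rich medium in 96-well plates with 12-point serial dilutions of jawsamycin or clotrimazole (DMSO normalised to 2%). Growth was read as OD600 and normalised within each dilution series (NormOD, % growth). Wells set exactly to 100 are normalisation references and are left out.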

GPI1_HIP = system: GPI1_HIP
Procedure: as §1

GPI2_HIP = system: GPI2_HIP
Procedure: as §1

HAC1_HOP = system: HAC1_HOP
Procedure: as §1

HO_HIP = system: HO_HIP
Procedure: as §1

HO_HOP = system: HO_HOP
Procedure: as §1

IRE1_HOP = system: IRE1_HOP
Procedure: as §1

JIP3_HOP = system: JIP3_HOP
Procedure: as §1

MID2_HOP = system: MID2_HOP
Procedure: as §1

MUD2_HOP = system: MUD2_HOP
Procedure: as §1

RLM1_HOP = system: RLM1_HOP
Procedure: as §1

SPT14(H106Y) = system: SPT14(H106Y)
Procedure: as §1

SPT14(T114A) = system: SPT14(T114A)
Procedure: as §1

SPT14(V76F) = system: SPT14(V76F)
Procedure: as §1

SPT14(WT) = system: SPT14(WT)
Procedure: as §1

SPT14_HIP = system: SPT14_HIP
Procedure: as §1

C[C@@H]1C[C@H]1/C=C/[C@@H]1C[C@H]1[C@@H]1C[C@H]1[C@@H]1C[C@H]1[C@@H]1C[C@H]1/C=C/C=C/C(=O)NC[C@H]1O[C@@H](N2CCC(=O)NC2=O)[C@H](O)[C@@H]1O [Jawsamycin]
growth (GPI15_HIP; 0.125900179 µM): 96 ± 4.2% | growth (GPI15_HIP; 0.26439 µM): 83.9 ± 4.3% | growth (GPI15_HIP; 0.55522 µM): 14.5 ± 1.1% | growth (GPI15_HIP; 1.16596 µM): 0.707 ± 1% | growth (GPI15_HIP; 2.44852 µM): -0.181 ± 0.52% | growth (GPI15_HIP; 5.14189 µM): -0.594 ± 0.33% | growth (GPI15_HIP; 10.79796998 µM): -0.329 ± 0.29% | growth (GPI15_HIP; 22.6757 µM): -0.355 ± 0.18% | growth (GPI15_HIP; 47.619 µM): 2.02 ± 0.8% | growth (GPI15_HIP; 100 µM): 3.35 ± 1% | growth (GPI1_HIP; 0.125900179 µM): 95.1 ± 5% | growth (GPI1_HIP; 0.26439 µM): 65.4 ± 2% | growth (GPI1_HIP; 0.55522 µM): 3.38 ± 0.54% | growth (GPI1_HIP; 1.16596 µM): 0.172 ± 0.55% | growth (GPI1_HIP; 2.44852 µM): -0.0309 ± 0.13% | growth (GPI1_HIP; 5.14189 µM): 0.123 ± 0.43% | growth (GPI1_HIP; 10.79796998 µM): -0.0696 ± 0.33% | growth (GPI1_HIP; 22.6757 µM): -0.0919 ± 0.24% | growth (GPI1_HIP; 47.619 µM): 0.953 ± 0.27% | growth (GPI1_HIP; 100 µM): 4.06 ± 0.43% | growth (GPI2_HIP; 0.125900179 µM): 102 ± 12% | growth (GPI2_HIP; 0.26439 µM): 78.2 ± 6% | growth (GPI2_HIP; 0.55522 µM): 12.1 ± 12% | growth (GPI2_HIP; 1.16596 µM): 0.957 ± 1.3% | growth (GPI2_HIP; 2.44852 µM): -0.153 ± 0.52% | growth (GPI2_HIP; 5.14189 µM): -0.208 ± 0.26% | growth (GPI2_HIP; 10.79796998 µM): -0.242 ± 0.21% | growth (GPI2_HIP; 22.6757 µM): 0.183 ± 0.11% | growth (GPI2_HIP; 47.619 µM): 1.43 ± 0.45% | growth (GPI2_HIP; 100 µM): 3.73 ± 0.85% | growth (HAC1_HOP; 0.12590018 µM): 72.1 ± 4.1% | growth (HAC1_HOP; 0.26439 µM): 23.7 ± 11% | growth (HAC1_HOP; 0.55522 µM): 3.92 ± 1.4% | growth (HAC1_HOP; 1.16596156 µM): 2.26 ± 2.9% | growth (HAC1_HOP; 2.44852 µM): 0.418 ± 0.45% | growth (HAC1_HOP; 5.14189 µM): 0.344 ± 0.077% | growth (HAC1_HOP; 10.798 µM): 1.36 ± 0.26% | growth (HO_HIP; 0.125900179 µM): 100.4 ± 0.2% | growth (HO_HIP; 0.26439 µM): 96.5 ± 10% | growth (HO_HIP; 0.55522 µM): 29.9% | growth (HO_HIP; 1.16596 µM): 5.52 ± 5.4% | growth (HO_HIP; 2.44852 µM): 1.29 ± 1.6% | growth (HO_HIP; 5.14189 µM): 0.138 ± 0.75% | growth (HO_HIP; 10.79796998 µM): -0.0442 ± 0.35% | growth (HO_HIP; 22.6757 µM): 0.182 ± 0.18% | growth (HO_HIP; 47.619 µM): 5.56 ± 1.6% | growth (HO_HIP; 100 µM): 11.6 ± 7.3% | growth (HO_HOP; 0.12590018 µM): 97 ± 3.7% | growth (HO_HOP; 0.26439 µM): 84 ± 8.2% | growth (HO_HOP; 0.55522 µM): 56 ± 15% | growth (HO_HOP; 1.16596156 µM): 15.1 ± 4.4% | growth (HO_HOP; 2.44852 µM): 4.54 ± 0.77% | growth (HO_HOP; 5.14189 µM): 1.38 ± 0.34% | growth (HO_HOP; 10.798 µM): 8.54 ± 3.9% | growth (IRE1_HOP; 0.12590018 µM): 70.1 ± 3.1% | growth (IRE1_HOP; 0.26439 µM): 14.2 ± 8.8% | growth (IRE1_HOP; 0.55522 µM): 2.66 ± 1.7% | growth (IRE1_HOP; 1.16596156 µM): -0.118 ± 0.44% | growth (IRE1_HOP; 2.44852 µM): -0.241 ± 0.45% | growth (IRE1_HOP; 5.14189 µM): -0.264 ± 0.47% | growth (IRE1_HOP; 10.798 µM): 0.8 ± 0.17% | growth (JIP3_HOP; 0.12590018 µM): 64.5 ± 38% | growth (JIP3_HOP; 0.26439 µM): -0.444 ± 0.1% | growth (JIP3_HOP; 0.55522 µM): -0.584 ± 0.029% | growth (JIP3_HOP; 1.16596156 µM): -0.756 ± 0.065% | growth (JIP3_HOP; 2.44852 µM): -0.689 ± 0.054% | growth (JIP3_HOP; 5.14189 µM): -0.655 ± 0.015% | growth (JIP3_HOP; 10.798 µM): 0.0162 ± 0.019% | growth (MID2_HOP; 0.12590018 µM): 89.4 ± 4% | growth (MID2_HOP; 0.26439 µM): 0.809 ± 2.5% | growth (MID2_HOP; 0.55522 µM): -0.646 ± 0.35% | growth (MID2_HOP; 1.16596156 µM): -0.903 ± 0.097% | growth (MID2_HOP; 2.44852 µM): -0.918 ± 0.13% | growth (MID2_HOP; 5.14189 µM): -0.848 ± 0.081% | growth (MID2_HOP; 10.798 µM): -0.546 ± 0.14% | growth (MUD2_HOP; 0.12590018 µM): 33.2 ± 14% | growth (MUD2_HOP; 0.26439 µM): 0.873 ± 1.4% | growth (MUD2_HOP; 0.55522 µM): -1.12 ± 0.056% | growth (MUD2_HOP; 1.16596156 µM): -1.19 ± 0.32% | growth (MUD2_HOP; 2.44852 µM): -0.498 ± 1.1% | growth (MUD2_HOP; 5.14189 µM): -0.906 ± 0.31% | growth (MUD2_HOP; 10.798 µM): -0.454 ± 0.53% | growth (RLM1_HOP; 0.12590018 µM): 88 ± 7.7% | growth (RLM1_HOP; 0.26439 µM): 2.22 ± 3% | growth (RLM1_HOP; 0.55522 µM): -0.308 ± 0.17% | growth (RLM1_HOP; 1.16596156 µM): -0.482 ± 0.12% | growth (RLM1_HOP; 2.44852 µM): -0.568 ± 0.1% | growth (RLM1_HOP; 5.14189 µM): -0.545 ± 0.051% | growth (RLM1_HOP; 10.798 µM): -0.0157 ± 0.11% | growth (SPT14(H106Y); 0.0599525 µM): 99.9 ± 7.8% | growth (SPT14(H106Y); 0.125900179 µM): 99.6 ± 6.1% | growth (SPT14(H106Y); 0.26439 µM): 96 ± 2.1% | growth (SPT14(H106Y); 0.55522 µM): 91.6 ± 4.1% | growth (SPT14(H106Y); 1.16596 µM): 65.8 ± 17% | growth (SPT14(H106Y); 2.44852 µM): 1.98 ± 7.4% | growth (SPT14(H106Y); 5.14189 µM): -4.83 ± 0.1% | growth (SPT14(H106Y); 10.79796998 µM): -5.01 ± 0.39% | growth (SPT14(H106Y); 22.6757 µM): -5 ± 0.36% | growth (SPT14(H106Y); 47.619 µM): -2.96 ± 0.32% | growth (SPT14(H106Y); 100 µM): 0.649 ± 1.2% | growth (SPT14(T114A); 0.0599525 µM): 96.9 ± 3.4% | growth (SPT14(T114A); 0.125900179 µM): 97.4 ± 2.2% | growth (SPT14(T114A); 0.26439 µM): 92.3 ± 1.1% | growth (SPT14(T114A); 0.55522 µM): 86.4 ± 6.1% | growth (SPT14(T114A); 1.16596 µM): 61 ± 6.8% | growth (SPT14(T114A); 2.44852 µM): -0.886 ± 0.7% | growth (SPT14(T114A); 5.14189 µM): -4.03 ± 0.75% | growth (SPT14(T114A); 10.79796998 µM): -3.95 ± 0.067% | growth (SPT14(T114A); 22.6757 µM): -3.63 ± 0.075% | growth (SPT14(T114A); 47.619 µM): -2.26 ± 0.22% | growth (SPT14(T114A); 100 µM): 0.0855 ± 0.21% | growth (SPT14(V76F); 0.1259 µM): 101.9 ± 0.58% | growth (SPT14(V76F); 0.26439 µM): 103 ± 3.4% | growth (SPT14(V76F); 0.55522 µM): 104 ± 4.9% | growth (SPT14(V76F); 1.16596 µM): 96.4 ± 2.8% | growth (SPT14(V76F); 2.44852 µM): 100 ± 9.3% | growth (SPT14(V76F); 5.14189 µM): 99 ± 1.6% | growth (SPT14(V76F); 10.798 µM): 102 ± 3.1% | growth (SPT14(V76F); 22.6757 µM): 102 ± 4% | growth (SPT14(V76F); 100 µM): 74.6 ± 10% | growth (SPT14(WT); 0.0599525 µM): 80.5 ± 8.5% | growth (SPT14(WT); 0.125900179 µM): 17.9 ± 28% | growth (SPT14(WT); 0.26439 µM): -3.32 ± 2.1% | growth (SPT14(WT); 0.55522 µM): -3.82 ± 2.3% | growth (SPT14(WT); 1.16596 µM): -3.97 ± 2.3% | growth (SPT14(WT); 2.44852 µM): -3.91 ± 2.2% | growth (SPT14(WT); 5.14189 µM): -3.92 ± 2.3% | growth (SPT14(WT); 10.79796998 µM): -3.59 ± 2.6% | growth (SPT14(WT); 22.6757 µM): -3.29 ± 2.7% | growth (SPT14(WT); 47.619 µM): -1.96 ± 2.4% | growth (SPT14(WT); 100 µM): -0.804 ± 1.2% | growth (SPT14_HIP; 0.125900179 µM): 108 ± 16% | growth (SPT14_HIP; 0.26439 µM): 89.878 ± 0.04% | growth (SPT14_HIP; 0.55522 µM): 21.9% | growth (SPT14_HIP; 1.16596 µM): 2.72 ± 2.1% | growth (SPT14_HIP; 2.44852 µM): 0.0973 ± 0.67% | growth (SPT14_HIP; 5.14189 µM): -0.496 ± 0.4% | growth (SPT14_HIP; 10.79796998 µM): -0.548 ± 0.2% | growth (SPT14_HIP; 22.6757 µM): 0.0487 ± 0.98% | growth (SPT14_HIP; 47.619 µM): 2.81 ± 0.48% | growth (SPT14_HIP; 100 µM): 5.21 ± 0.21%
